One block for each molecule: values may come before it.
Key:
Schistosoma japonicum [1] = experiment: Antiparasitic activity against Schistosoma japonicum cercariae isolate Anhui infected in ICR mouse assessed as overall reduction rate at 100 to 400 mg/kg, po administered as single dose for 5 consecutive days measured on day 21 post dose by scanning electron microscopic method; assay type: functional; set-up: scale not given: the % may be the effect or the level left
[2] = Cytotoxicity against human HeLa cells assessed as cell survival at 40 uM after 24 hrs by MTT assay relative to control; assay type: cell-based; conditions: read-out: Survival
Schistosoma japonicum [3] = experiment: Antiparasitic activity against Schistosoma japonicum derived from infected C57BL/6 mouse assessed as parasite killing at 10 uM incubated for 30 to 60 mins measured up to 72 hrs by inverted microscopic method relative to control; assay type: functional
[4] = Elimination half life in human at 15 mg/kg, po; assay type: ADME, organism-based; conditions: in vivo, read-out: beta t1/2
[5] = Cmax in human at 15 mg/kg, po; assay type: ADME, organism-based; set-up: dose 15 mg/kg, route oral; conditions: in vivo
[6] = Drug excretion in human urine at 15 mg/kg, po; assay type: ADME, organism-based; conditions: read-out: Drug excretion
Schistosoma mansoni [7] = experiment: Antiparasitic activity against Schistosoma mansoni in patient assessed as cure rate by measuring reduction in eggs in stool at 10 mg/kg/day bid measured up to day 180 post dose relative to control; assay type: functional; set-up: scale not given: the % may be the effect or the level left
Schistosoma mansoni [8] = experiment: Antiparasitic activity against Schistosoma mansoni in patient assessed as reduction in eggs per gram of rectal mucosa at 10 mg/kg/day bid measured up to day 180 post dose relative to control; assay type: functional; set-up: scale not given: the % may be the effect or the level left
Schistosoma mansoni [9] = experiment: In vivo antiparasitic activity against Schistosoma mansoni assessed as cure rate at 40 to 60 mg/kg relative to control; assay type: functional
Schistosoma mansoni [10] = experiment: In vivo antiparasitic activity against Schistosoma mansoni assessed as reduction in egg count in […] at 40 to 60 mg/kg relative to control; assay type: functional; set-up: scale not given: the % may be the effect or the level left
[11] = Apparent permeability in human Caco2 cells; assay type: ADME, cell-based; conditions: Caco-2
[12] = Cmax in human after 1 to 2 hrs; assay type: ADME
Plasma = experiment: Drug level in human plasma after 1 to 2 hrs; assay type: ADME, cell-free
[13] = Half life in human; assay type: ADME
[14] = Fraction absorbed in po dosed human; assay type: ADME, organism-based; conditions: in vivo, read-out: Fabs
[15] = Fraction absorbed in po dosed rat; assay type: ADME, organism-based; conditions: in vivo, read-out: Fabs
[16] = Fraction absorbed in po dosed dog; assay type: ADME, organism-based, Canis lupus familiaris; conditions: in vivo, read-out: Fabs
[17] = Fraction absorbed in po dosed monkey; assay type: ADME, organism-based, Macaca mulatta; conditions: rhesus monkey, in vivo, read-out: Fabs
[18] = Tmax in human; assay type: ADME
albumin = albumin (Homo sapiens, UniProt P02768); experiment: Binding affinity to albumin (unknown origin); assay type: ADME; conditions: read-out: PB
[19] = Antiparasitic activity against Schistosoma in intestinal schistosomiasis patient assessed as cure rate at 40 mg/kg; assay type: functional
[20] = Protein binding in plasma (unknown origin) relative to control; assay type: ADME, cell-free; conditions: read-out: PPB
[21] = Drug excretion in human urine up to 4 days; assay type: ADME; conditions: read-out: Drug excretion
[22] = Protein binding in plasma (unknown origin); assay type: ADME, cell-free
Schistosoma mansoni [23] = experiment: Antiparasitic activity against Schistosoma mansoni in patient assessed as cure rate by measuring reduction in eggs in stool at 60 mg/kg/day for 3 consecutive days measured up to day 180 post dose relative to control; assay type: functional; set-up: scale not given: the % may be the effect or the level left
Schistosoma mansoni [24] = experiment: Antiparasitic activity against Schistosoma mansoni in patient assessed as reduction in eggs per gram of rectal mucosa at 60 mg/kg/day for 3 consecutive days measured up to day 180 post dose relative to control; assay type: functional; set-up: scale not given: the % may be the effect or the level left

Chain of albumin (P02768 whole entry): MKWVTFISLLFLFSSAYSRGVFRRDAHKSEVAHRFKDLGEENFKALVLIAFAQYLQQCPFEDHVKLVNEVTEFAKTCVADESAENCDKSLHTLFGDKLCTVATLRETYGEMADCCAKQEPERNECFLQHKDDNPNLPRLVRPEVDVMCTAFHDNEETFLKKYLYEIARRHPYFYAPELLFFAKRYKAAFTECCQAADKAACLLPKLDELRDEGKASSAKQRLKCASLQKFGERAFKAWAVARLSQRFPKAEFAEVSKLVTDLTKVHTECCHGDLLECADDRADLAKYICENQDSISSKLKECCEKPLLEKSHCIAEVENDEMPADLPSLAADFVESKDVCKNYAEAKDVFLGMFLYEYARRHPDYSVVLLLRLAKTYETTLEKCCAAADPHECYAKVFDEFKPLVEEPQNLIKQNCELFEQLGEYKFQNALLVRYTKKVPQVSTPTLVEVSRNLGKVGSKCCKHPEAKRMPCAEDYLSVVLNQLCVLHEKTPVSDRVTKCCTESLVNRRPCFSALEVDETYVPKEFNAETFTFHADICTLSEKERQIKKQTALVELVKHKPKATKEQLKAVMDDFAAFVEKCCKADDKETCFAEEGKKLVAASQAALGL

Compound: C[C@H]1[C@@H](OC(=O)CCC(=O)Oc2ccc3c(c2)C2CN(C(=O)C4CCCCC4)CC(=O)N2CC3)O[C@@H]2O[C@@]3(C)CC[C@H]4[C@H](C)CC[C@@H]1[C@@]24OO3 (stereo partly drawn)
Activity (Schistosoma japonicum [1]): 60%

Compound: O=C(C1CCCCC1)N1CC(=O)N2CCc3ccc([N+](=O)[O-])cc3C2C1 (stereo not drawn)
viability at 24 h, 40 µM [2]: > 85%

Compound: Nc1ccc2c(c1)C1CN(C(=O)C3CCCCC3)CC(=O)N1CC2 (stereo not drawn)
viability at 24 h, 40 µM [2]: > 85%

Compound: O=C(CCCCCN1C(=O)c2cccc3c(C4CCOCC4)ccc(c23)C1=O)Nc1ccc2c(c1)C1CN(C(=O)C3CCCCC3)CC(=O)N1CC2 (stereo not drawn)
viability at 24 h, 40 µM [2]: > 85%

Compound: O=C(CCl)N1CC(=O)N2CCc3sccc3C2C1 (stereo not drawn)
Activity (Schistosoma japonicum [3]): 100%

half-life [4]: 1.5 to 2 h
Cmax [5]: 1000 to 4000 ng/mL
dose excreted [6]: 0.4 to 1.9%
Compound: CC(C)NCC1CCc2cc(CO)c([N+](=O)[O-])cc2N1 (stereo not drawn) [OXAMNIQUINE]
Activity (Schistosoma mansoni [7]): 90.3%
Activity (Schistosoma mansoni [8]): 42.4%

Papp [11]: 44 ×10⁻⁶ cm/s
Cmax [12]: 1000 ng/mL
Drug uptake (Plasma): 5 to 7 %ID
half-life [13]: 1.5 h
Fa [14]: 75 to 100%
Fa [15]: 75 to 100%
Fa [16]: 75 to 100%
Fa [17]: 75 to 100%
Tmax [18]: 3 to 4 h
fraction unbound (albumin): 0.19 to 0.22
fraction unbound [20]: 0.195 to 0.21
dose excreted at 96 h [21]: 80%
PPB [22]: 0.19 to 3 mg/mL
Compound: O=C(C1CCCCC1)N1CC(=O)N2CCc3ccccc3C2C1 (stereo not drawn) [PRAZIQUANTEL]
Activity (Schistosoma mansoni [9]): 60 - 90%
Activity (Schistosoma mansoni [10]): 90 - 95%
Activity [19]: 18 - 39%
Activity (Schistosoma mansoni [23]): 100%
Activity (Schistosoma mansoni [24]): 96.1%

— ChEMBL document CHEMBL4033679, “Medicinal chemistry of antischistosomal drugs: Praziquantel and oxamniquine” (Bioorg Med Chem, 2017)
